The source of these data is the NIST ThermoML archive (doi:10.1016/j.fluid.2014.04.003).

Molecules are shown by their SMILES. ± gives the expanded uncertainty stated by the source.

For the data set the following is noted: Crystal; DTA.

For `CC(C)Cc1ccc([C@H](C)C(=O)O)cc1.CCCCCCCCNC[C@H](O)[C@@H](O)[C@H](O)[C@H](O)CO` [S-ibuprofen n-octyl-d-glucamine salt], the Normal melting temperature came to 139.26 ± 0.39 °C.
